# Measured values: patent US9163011B2, “Oxazine derivatives and their use in the treatment of disease” (NOVARTIS AG, priority 2011, dated 2015)
# Legend:
# [1] = Test 4: Inhibition of Cellular Release of Amyloid Peptide 1-40; assay type: cell-based, Chinese hamster; details: Cricetulus griseus; CHO cells with human APP, 24 hours with compound; read-out: Test 4 Amyloid-β1-40 release IC50
# Description: The cells are plated at a density of 8000 cells/well into 96-well microtiter plates and cultivated for 24 hours in DMEM cell culture medium containing 10% FCS. The test compound is added to the cells at various concentrations, and the cells are cultivated for 24 hours in the presence of the test compound. […] The potency of the compound is calculated from the percentage of inhibition of amyloid peptide release as a function of the test compound concentration.
# [2] = target: Human BACE-2 (Homo sapiens (Human), UniProt Q9Y5Z0); test: Test 2: Inhibition of Human BACE-2; assay type: biochemical; details: recombinant BACE-2, pH 4.5, 1 hour preincubation
# Description: Test 2: Inhibition of Human BACE-2
# (§1) Recombinant BACE-2 (extracellular domain, expressed in baculovirus and purified using standard methods) at 0.1 to 1 nM concentrations is incubated with the test compound at various concentrations for 1 hour at room temperature in 100 mM acetate buffer, pH 4.5, containing 0.1% CHAPS. Activity was measured using a final concentration of 3 μM of the fluorescence-quenched substrate Q-C(HSO3)-Ile-Asp-Leu-Ala-Val-Leu-Asp-HN—CH2—CH2-Mca, where Q=2-nitro-5-amino benzoic acid and Mca=7-methoxy-4-coumarinyl acetic acid. Catalytic turnover was monitored in a Spectramax Gemini fluorescence plate reader (Molecular Devices) in black 96-well microplates using excitation/emission wavelength of 325 nm and 400 nm, respectively. Fluorescence increase was followed for 15 min, in 1 minute's intervals. The fluorescence/time slopes were calculated from duplicate wells and from wells without inhibitor and the IC50 values were calculated using a logistic 4-parameter model.
# [3] = target: Human BACE-1 (Homo sapiens (Human), UniProt P56817); test: Test 1: Inhibition of Human BACE-1; assay type: biochemical; details: recombinant BACE-1, pH 4.5, 1 hour preincubation
# Description: Test 1: Inhibition of Human BACE-1
# as §1, with “BACE-1” for “BACE-2”
# Sequence of Human BACE-2 (Q9Y5Z0 63-473): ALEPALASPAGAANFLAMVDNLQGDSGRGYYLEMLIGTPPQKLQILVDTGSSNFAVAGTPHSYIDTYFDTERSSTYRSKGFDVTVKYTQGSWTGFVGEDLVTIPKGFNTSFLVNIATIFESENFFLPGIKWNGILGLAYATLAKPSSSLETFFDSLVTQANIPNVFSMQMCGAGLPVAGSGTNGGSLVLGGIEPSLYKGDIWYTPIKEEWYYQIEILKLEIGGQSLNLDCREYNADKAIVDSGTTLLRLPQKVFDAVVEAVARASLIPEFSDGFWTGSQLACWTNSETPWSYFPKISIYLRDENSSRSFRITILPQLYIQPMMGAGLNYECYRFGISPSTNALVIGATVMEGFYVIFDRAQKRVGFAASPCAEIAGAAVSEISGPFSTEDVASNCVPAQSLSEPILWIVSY
# Sequence of Human BACE-1 (P56817 46-457): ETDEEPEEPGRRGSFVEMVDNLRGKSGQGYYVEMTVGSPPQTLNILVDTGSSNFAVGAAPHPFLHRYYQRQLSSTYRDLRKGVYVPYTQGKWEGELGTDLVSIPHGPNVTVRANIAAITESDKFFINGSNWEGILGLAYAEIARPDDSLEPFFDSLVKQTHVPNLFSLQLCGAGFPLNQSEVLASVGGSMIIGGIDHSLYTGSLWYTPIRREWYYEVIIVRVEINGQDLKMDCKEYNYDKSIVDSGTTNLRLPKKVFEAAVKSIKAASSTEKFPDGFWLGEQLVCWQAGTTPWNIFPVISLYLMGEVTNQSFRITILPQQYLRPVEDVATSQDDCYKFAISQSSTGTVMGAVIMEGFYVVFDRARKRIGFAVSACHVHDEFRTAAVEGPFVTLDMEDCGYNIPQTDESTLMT
IC50 [1] [µM],IC50 [2] [µM],IC50 [3] [µM],SMILES
0.07,5.6,0.15,"COCCc1cnc(C(=O)Nc2ccc(F)c([C@@]3(C)N=C(N)OCC3(F)F)n2)c(N)n1 [Example 29, 3-Amino-5-(2-methoxy-ethyl)-pyrazine-2-carboxylic acid [6-((R)-2-amino-5,5-difluoro-4-methyl-5,6-dihydro-4H-[1,3]oxazin-4-yl)-5-fluoro-pyridin-2-yl]-amide]"
0.06,0.58,0.19,"C[C@]1(c2nc(NC(=O)c3ncc(C(F)F)nc3N)ccc2F)N=C(N)OCC1(F)F [Example 22, 3-Amino-5-difluoromethyl-pyrazine-2-carboxylic acid [6-((R)-2-amino-5,5-difluoro-4-methyl-5,6-dihydro-4H-[1,3]oxazin-4-yl)-5-fluoro-pyridin-2-yl]-amide]"
0.25,4.5,0.24,"C[C@]1(c2nc(NC(=O)c3ncc(OCC(F)F)cc3Cl)ccc2F)N=C(N)OCC1(F)F [Example 24, 3-Chloro-5-(2,2-difluoro-ethoxy)-pyridine-2-carboxylic acid [6-((R)-2-amino-5,5-difluoro-4-methyl-5,6-dihydro-4H-[1,3]oxazin-4-yl)-5-fluoro-pyridin-2-yl]-amide]"
0.081,0.84,0.083,"COCC#Cc1cnc(C(=O)Nc2ccc(F)c([C@@]3(C)N=C(N)OCC3(F)F)n2)c(Cl)c1 [Example 21, 3-Chloro-5-(3-methoxy-prop-1-ynyl)pyridine-2-carboxylic acid [6-((R)-2-amino-5,5-difluoro-4-methyl-5,6-dihydro-4H-[1,3]oxazin-4-yl)-5-fluoro-pyridin-2-yl]-amide]"
0.066,0.26,0.14,"C[C@]1(c2nc(NC(=O)c3ncc(C(F)F)cc3N)ccc2F)N=C(N)OCC1(F)F [Example 33, 3-Amino-5-difluoromethyl-pyridine-2-carboxylic acid [6-((R)-2-amino-5,5-difluoro-4-methyl-5,6-dihydro-4H-[1,3]oxazin-4-yl)-5-fluoro-pyridin-2-yl]-amide]"
0.045,0.048,0.06,"C[C@]1(c2nc(NC(=O)c3ncc(Cl)cc3N)ccc2F)N=C(N)OCC1(F)F [Example 19, 3-Amino-5-chloro-pyridine-2-carboxylic acid [6-((R)-2-amino-5,5-difluoro-4-methyl-5,6-dihydro-4H-[1,3]oxazin-4-yl)-5-fluoro-pyridin-2-yl]-amide]"
0.84,10,1.9,"[2H]C([2H])([2H])C([2H])([2H])Oc1cnc(C(=O)Nc2ccc(F)c([C@@]3(C)N=C(N)OCC3(F)F)n2)c(N)n1 [Example 28, 3-Amino-5-(penta-deutero-ethoxy)-pyrazine-2-carboxylic acid [6-((R)-2-amino-5,5-difluoro-4-methyl-5,6-dihydro-4H-[1,3]oxazin-4-yl)-5-fluoro-pyridin-2-yl]-amide]"
0.088,0.12,0.33,"C[C@]1(c2nc(NC(=O)c3ncc(F)cc3N)ccc2F)N=C(N)OCC1(F)F [Example 18, 3-Amino-5-fluoro-pyridine-2-carboxylic acid [6-((R)-2-amino-5,5-difluoro-4-methyl-5,6-dihydro-4H-[1,3]oxazin-4-yl)-5-fluoro-pyridin-2-yl]-amide]"
0.014,0.26,0.054,"C[C@]1(c2nc(NC(=O)c3ccc(C#N)cn3)ccc2F)N=C(N)OCC1(F)F [Example 35, 5-Cyano-pyridine-2-carboxylic acid [6-((R)-2-amino-5,5-difluoro-4-methyl-5,6-dihydro-4H-[1,3]oxazin-4-yl)-5-fluoro-pyridin-2-yl]-amide]"
0.45,0.42,0.29,"CCOc1cnc(C(=O)Nc2ccc(F)c([C@@]3(C)N=C(N)OCC3(F)F)n2)c(Cl)c1 [Example 27, 3-Chloro-5-ethoxy-pyridine-2-carboxylic acid [6-((R)-2-amino-5,5-difluoro-4-methyl-5,6-dihydro-4H-[1,3]oxazin-4-yl)-5-fluoro-pyridin-2-yl]-amide]"
0.058,–,–,"CC(F)(F)c1cnc(C(=O)Nc2ccc(F)c([C@@]3(C)N=C(N)OCC3(F)F)n2)c(Cl)c1 [Example 36, 3-Chloro-5-(1,1-difluoro-ethyl)-pyridine-2-carboxylic acid [6-((R)-2-amino-5,5-difluoro-4-methyl-5,6-dihydro-4H-[1,3]oxazin-4-yl)-5-fluoro-pyridin-2-yl]-amide]"

# The next lines start with the molecule.
SMILES,IC50 [1] [µM],IC50 [2] [µM],IC50 [3] [µM]
COCC[C@@]1(c2nc(NC(=O)c3ncc(C#N)cc3C)ccc2F)N=C(N)OCC1(F)F [Example 5],> 10,–,–
"C[C@]1(c2nc(NC(=O)c3ncc(OCF)nc3N)ccc2F)N=C(N)OCC1(F)F [Example 15, 3-Amino-5-fluoromethoxy-pyrazine-2-carboxylic acid [6-((R)-2-amino-5,5-difluoro-4-methyl-5,6-dihydro-4H-[1,3]oxazin-4-yl)-5-fluoro-pyridin-2-yl]-amide]",0.03,0.73,0.11
"C[C@]1(c2nc(NC(=O)c3ncc(OCC(F)(F)F)nc3N)ccc2F)N=C(N)OCC1(F)F [Example 10, 3-Amino-5-(2,2,2-trifluoro-ethoxy)pyrazine-2-carboxylic acid [6-((R)-2-amino-5,5-difluoro-4-methyl-5,6-dihydro-4H-[1,3]oxazin-4-yl)-5-fluoro-pyridin-2-yl]-amide]",0.6,3.8,0.59
"C[C@]1(c2nc(NC(=O)c3ncc(C#CCO)cc3N)ccc2F)N=C(N)OCC1(F)F [Example 17, 3-Amino-5-(3-hydroxy-prop-1-ynyl)-pyridine-2-carboxylic acid [6-((R)-2-amino-5,5-difluoro-4-methyl-5,6-dihydro-4H-[1,3]oxazin-4-yl)-5-fluoro-pyridin-2-yl]-amide]",0.062,8.2,0.24
"C[C@]1(c2nc(NC(=O)c3ncc(C(F)(F)F)nc3N)ccc2F)N=C(N)OCC1(F)F [Example 8, 3-Amino-5-trifluoromethyl-pyrazine-2-carboxylic acid [6-((R)-2-amino-5,5-difluoro-4-methyl-5,6-dihydro-4H-[1,3]oxazin-4-yl)-5-fluoro-pyridin-2-yl]-amide]",0.14,1.4,0.16
"COCCOc1cnc(C(=O)Nc2ccc(F)c([C@@]3(C)N=C(N)OCC3(F)F)n2)c(N)n1 [Example 16, 3-Amino-5-(2-methoxy-ethoxy)-pyrazine-2-carboxylic acid [6-((R)-2-amino-5,5-difluoro-4-methyl-5,6-dihydro-4H-[1,3]oxazin-4-yl)-5-fluoro-pyridin-2-yl]amide]",–,8.9,0.12
"C[C@]1(c2nc(NC(=O)c3ncc(OCC(F)F)nc3N)ccc2F)N=C(N)OCC1(F)F [Example 11, 3-Amino-5-(2,2-difluoro-ethoxy)-pyrazine-2-carboxylic acid [6-((R)-2-amino-5,5-difluoro-4-methyl-5,6-dihydro-4H-[1,3]oxazin-4-yl)-5-fluoro-pyridin-2-yl]-amide]",0.44,2.9,0.83
"COCC[C@]1(c2nc(NC(=O)c3ncc(C(F)(F)F)cc3Cl)ccc2F)N=C(N)OCC1(F)F [Example 6, 3-Chloro-5-trifluoromethyl-pyridine-2-carboxylic acid {6-[(R)-2-amino-5,5-difluoro-4-(2-methoxy-ethyl)-5,6-dihydro-4H-[1,3]oxazin-4-yl]-5-fluoro-pyridin-2-yl}-amide]",0.38,6.6,0.65
"COCC#Cc1cnc(C(=O)Nc2ccc(F)c([C@@]3(C)N=C(N)OCC3(F)F)n2)c(N)c1 [Example 14, 3-Amino-5-(3-methoxy-prop-1-ynyl)-pyridine-2-carboxylic acid [6-((R)-2-amino-5,5-difluoro-4-methyl-5,6-dihydro-4H-[1,3]oxazin-4-yl)-5-fluoro-pyridin-2-yl]-amide]",0.54,–,–
"COc1cnc(C(=O)Nc2ccc(F)c([C@@]3(C)N=C(N)OCC3(F)F)n2)c(C)c1 [Example 13, 5-Methoxy-3-methyl-pyridine-2-carboxylic acid [6-((R)-2-amino-5,5-difluoro-4-methyl-5,6-dihydro-4H-[1,3]oxazin-4-yl)-5-fluoro-pyridin-2-yl]-amide]",0.082,–,–
